Assay results as given in article PMC11571108, “Targeting PfCLK3 with Covalent Inhibitors: A Novel Strategy for Malaria Treatment” (Journal of Medicinal Chemistry, 2024).
Where two headings read alike, the source gives them in different places.

Tests used:
[1] = tested on: asexual P. falciparum 3D7 parasites; assay: Time of inhibition assays in 3D7 parasites; type: cell-based; conditions: Plasmodium falciparum, read at 72 hpi
Method: Synchronised parasites between 0.4 and 0.6% parasitemia at 4% hematocrit were plated in 384 well plates. To early ring stage plate (0−) rings, serially diluted drugs were added to the parasites in triplicate and incubated as plate 1. At 16 hpi, late ring stage parasites were exposed to the same drug concentrations previously diluted as in plate 1. This was repeated for 24 hpi plates. […] As described previously, the plates were thawed at RT for about an hour before they were SyBr green stained in lysis buffer.

[2] = tested on: PfCLK3 kinase domain (334–699); assay: Intact protein mass spectrometry, covalent adduct formation; type: binding, Plasmodium falciparum; conditions: for Covalent Adduct Formation (%): pH 7.4, 4 h incubation
Text: Covalent adduct formation was investigated by intact protein mass spectrometry.

| Structure (SMILES) | EC50 ([1]; dosed at 16 hpi, read-out: pEC50 (3D7) 16 hpi (converted)) | EC50 ([1]; dosed at 24 hpi, read-out: pEC50 (3D7) 24 hpi (converted)) | EC50 ([1]; dosed at early-ring stage (0 h), read-out: pEC50 (3D7) 0-3 hpi (converted)) | covalent adduct formation (observed or not) ([2]; pH 7.4, 4 h) | Covalent Adduct Formation (%) [2] | covalent adduct formation (observed or not) ([2]; pH raised to 9) |
| --- | --- | --- | --- | --- | --- | --- |
| C[C@@H]1CC[C@H]2[C@@H](C)C(=O)O[C@@H]3O[C@@]4(C)CC[C@@H]1[C@]32OO4 [Artemisinin] | 112 nM | 95.5 nM | 13.5 nM |  |  |  |
| C=CC(=O)N1CCN(Cc2ccc(OC)c(-c3cc4c(-c5ccc(C(=O)O)cc5)ccnc4[nH]3)c2)CC1 [Compound 2, 4-[2-(2-methoxy-5-{[4-(prop-2-enoyl)piperazin-1-yl]methyl}phenyl)-1H-pyrrolo[2,3-b]pyridin-4-yl]benzoic Acid] |  |  |  | no covalent adduct formation was observed | 0% | adduct formation was observed |
| COc1ccc(CN2CCN(C(=O)/C=C/CN(C)C)CC2)cc1-c1cc2c(-c3ccc(C(=O)O)cc3)ccnc2[nH]1 [Compound 3, 4-{2-[5-({4-[(2E)-4-(dimethylamino)but-2-enoyl]piperazin-1-yl}methyl)-2-methoxyphenyl]-1H-pyrrolo[2,3-b]pyridin-4-yl}benzoic Acid] |  |  |  | no adduct formation | 0% |  |
